From patent US6737383B1, “Herbicidal oxadiazolidines” (priority 1999, dated 2004)

Experiments:
[1] = test system: itchgrass; experiment: Test D itchgrass; format: in vivo, Rottboellia exaltata; settings: Postemergence, 0 to 100 scale
[2] = test system: common groundsel; experiment: Test D common groundsel; format: in vivo, Senecio vulgaris; settings: Postemergence, 0 to 100 scale
[3] = test system: Johnson grass; experiment: Test D Johnson grass; format: in vivo, Sorghum halepense; settings: Postemergence, 0 to 100 scale
[4] = test system: Spanishneedles; experiment: Test D Spanishneedles; format: in vivo, Bidens bipinnata; settings: Postemergence, 0 to 100 scale
[5] = test system: bermuda-grass; experiment: Test D bermudagrass; format: in vivo, Cynodon dactylon; settings: Postemergence, 0 to 100 scale
[6] = test system: common ragweed; experiment: Test D common ragweed; format: in vivo, Ambrosia elatior; settings: Postemergence, 0 to 100 scale
[7] = test system: purple nutsedge; experiment: Test D purple nutsedge; format: in vivo, Cyperus rotundus; settings: Postemergence, 0 to 100 scale
[8] = test system: pitted morningglory; experiment: Test D pitted morningglory; format: in vivo, Ipomoea lacunosa; settings: Postemergence, 0 to 100 scale
[9] = test system: Alexandergrass; experiment: Test D Alexandergrass; format: in vivo, Brachiaria plantaginea; settings: Postemergence, 0 to 100 scale
[10] = test system: Green foxtail; experiment: Test D green foxtail; format: in vivo; settings: Postemergence, 0 to 100 scale, 0 no injury, 100 complete control
[11] = test system: large crabgrass; experiment: Test D large crabgrass; format: in vivo, Digitaria sanguinalis; settings: Postemergence, 0 to 100 scale
[12] = test system: surinam grass; experiment: Test D surinam grass; format: in vivo, Brachiaria decumbens; settings: Postemergence, 0 to 100 scale
[13] = Rate 16 g/ha, 0 no injury, 100 complete control
[14] = Rate 32 g/ha, 0 no injury, 100 complete control
[15] = Rate 64 g/ha, 0 no injury, 100 complete control
[16] = Rate 125 g/ha, 0 no injury, 100 complete control

CC(C)N(C(=O)n1oc(=O)n(C2CCC2)c1=O)c1ccccc1 [Compound 348]
Plant response rating, Itchgrass [1, 13]: 0
Plant response rating, Itchgrass [1, 14]: 0
Plant response rating, Itchgrass [1, 15]: 0
Plant response rating, Itchgrass [1, 16]: 0
Plant response rating, Itchgrass ([1]; Rate 250 g/ha): 100
Plant response rating, Com. groundsel [2, 13]: 30
Plant response rating, Com. groundsel [2, 15]: 50
Plant response rating, Com. groundsel [2, 16]: 100
Plant response rating, Com. groundsel ([2]; Rate 250 g/ha): 100
Plant response rating, Johnsongrass [3, 13]: 0
Plant response rating, Johnsongrass [3, 14]: 0
Plant response rating, Johnsongrass [3, 15]: 0
Plant response rating, Johnsongrass [3, 16]: 20
Plant response rating, Johnsongrass ([3]; Rate 250 g/ha): 90
Plant response rating, Spanishneedles [4, 13]: 0
Plant response rating, Spanishneedles [4, 14]: 0
Spanishneedles plant response rating [4, 15]: 0
Spanishneedles plant response rating [4, 16]: 0
Plant response rating, Spanishneedles ([4]; Rate 250 g/ha): 0
Plant response rating, Bermudagrass [5, 13]: 0
Plant response rating, Bermudagrass [5, 14]: 20
Plant response rating, Bermudagrass [5, 15]: 100
Plant response rating, Bermudagrass [5, 16]: 100
Plant response rating, Bermudagrass ([5]; Rate 250 g/ha): 100
Plant response rating, C. ragweed [6, 13]: 0
Plant response rating, C. ragweed [6, 14]: 0
Plant response rating, C. ragweed [6, 15]: 0
Plant response rating, C. ragweed [6, 16]: 0
Plant response rating, C. ragweed ([6]; Rate 250 g/ha): 20
Plant response rating, Purple nutsedge [7, 13]: 0
Plant response rating, Purple nutsedge [7, 14]: 0
Purple nutsedge plant response rating [7, 15]: 0
Purple nutsedge plant response rating [7, 16]: 0
Plant response rating, Purple nutsedge ([7]; Rate 250 g/ha): 0
Plant response rating, P. morninglory [8, 13]: 0
Plant response rating, P. morninglory [8, 14]: 0
Plant response rating, P. morninglory [8, 15]: 0
Plant response rating, P. morninglory [8, 16]: 0
Plant response rating, P. morninglory ([8]; Rate 250 g/ha): 0
Plant response rating, Alexandergrass [9, 13]: 0
Plant response rating, Alexandergrass [9, 14]: 0
Plant response rating, Alexandergrass [9, 15]: 70
Plant response rating, Alexandergrass [9, 16]: 100
Plant response rating, Alexandergrass ([9]; Rate 250 g/ha): 100
Plant response rating, Green foxtail ([10]; Rate 16 g/ha): 0
Plant response rating, Green foxtail ([10]; Rate 32 g/ha): 20
Plant response rating, Large crabgrass [11, 13]: 20
Plant response rating, Large crabgrass [11, 14]: 60
Plant response rating, Large crabgrass [11, 15]: 100
Plant response rating, Large crabgrass [11, 16]: 100
Plant response rating, Large crabgrass ([11]; Rate 250 g/ha): 100
Plant response rating, Surinam grass [12, 13]: 0
Plant response rating, Surinam grass [12, 14]: 0
Surinam grass plant response rating [12, 15]: 20
Surinam grass plant response rating [12, 16]: 80
Plant response rating, Surinam grass ([12]; Rate 250 g/ha): 100

CC(C)N(C(=O)n1oc(=O)n(C2CCC2)c1=O)c1ccc(Cl)cc1 [Compound 349]
Plant response rating, Itchgrass [1, 13]: 0
Plant response rating, Itchgrass [1, 14]: 0
Plant response rating, Itchgrass [1, 15]: 0
Plant response rating, Itchgrass [1, 16]: 0
Plant response rating, Itchgrass ([1]; Rate 250 g/ha): 0
Plant response rating, Com. groundsel [2, 16]: 20
Plant response rating, Com. groundsel ([2]; Rate 250 g/ha): 50
Plant response rating, Johnsongrass [3, 13]: 0
Plant response rating, Johnsongrass [3, 14]: 0
Plant response rating, Johnsongrass [3, 15]: 0
Plant response rating, Johnsongrass [3, 16]: 10
Plant response rating, Johnsongrass ([3]; Rate 250 g/ha): 40
Plant response rating, Spanishneedles [4, 13]: 0
Plant response rating, Spanishneedles [4, 14]: 0
Spanishneedles plant response rating [4, 15]: 0
Spanishneedles plant response rating [4, 16]: 0
Plant response rating, Spanishneedles ([4]; Rate 250 g/ha): 0
Plant response rating, Bermudagrass [5, 13]: 0
Plant response rating, Bermudagrass [5, 14]: 40
Plant response rating, Bermudagrass [5, 15]: 70
Plant response rating, Bermudagrass [5, 16]: 100
Plant response rating, Bermudagrass ([5]; Rate 250 g/ha): 100
Plant response rating, C. ragweed [6, 13]: 0
Plant response rating, C. ragweed [6, 14]: 0
Plant response rating, C. ragweed [6, 15]: 0
Plant response rating, C. ragweed [6, 16]: 0
Plant response rating, C. ragweed ([6]; Rate 250 g/ha): 20
Plant response rating, Purple nutsedge [7, 13]: 0
Plant response rating, Purple nutsedge [7, 14]: 0
Purple nutsedge plant response rating [7, 15]: 0
Purple nutsedge plant response rating [7, 16]: 0
Plant response rating, Purple nutsedge ([7]; Rate 250 g/ha): 0
Plant response rating, P. morninglory [8, 13]: 0
Plant response rating, P. morninglory [8, 14]: 0
Plant response rating, P. morninglory [8, 15]: 0
Plant response rating, P. morninglory [8, 16]: 0
Plant response rating, P. morninglory ([8]; Rate 250 g/ha): 0
Plant response rating, Alexandergrass [9, 13]: 0
Plant response rating, Alexandergrass [9, 14]: 0
Plant response rating, Alexandergrass [9, 15]: 40
Plant response rating, Alexandergrass [9, 16]: 70
Plant response rating, Alexandergrass ([9]; Rate 250 g/ha): 90
Plant response rating, Green foxtail ([10]; Rate 16 g/ha): 0
Plant response rating, Green foxtail ([10]; Rate 32 g/ha): 0
Plant response rating, Large crabgrass [11, 13]: 0
Plant response rating, Large crabgrass [11, 14]: 0
Plant response rating, Large crabgrass [11, 15]: 70
Plant response rating, Large crabgrass [11, 16]: 100
Plant response rating, Large crabgrass ([11]; Rate 250 g/ha): 100
Plant response rating, Surinam grass [12, 13]: 0
Plant response rating, Surinam grass [12, 14]: 0
Surinam grass plant response rating [12, 15]: 0
Surinam grass plant response rating [12, 16]: 10
Plant response rating, Surinam grass ([12]; Rate 250 g/ha): 60
